According to patent US10221163B2 (priority 2015, dated 2019):
Like-named read-outs stand apart in the source and are kept apart here.

Experiments:
[1] = tested on: Pseudomonas aeruginosa efflux− (MB9799), IMP-1; type: cell-based; settings: concentration restoring susceptibility to imipenem at 2 μg/mL in the presence of a class A, C, D serine β-lactamase inhibitor closely related to relebactam
In short: (§1)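 Microbroth MIC tests in PAO1-background strains with fixed imipenem and/or ceftazidime, usually at the CLSI breakpoint, plus fixed class A/C β-lactamase inhibitor against AmpC. MBL inhibitor titrated; concentration restoring susceptibility recorded and compared as fold difference between efflux+ MB9798 and efflux− MB9799.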

[2] = tested on: Pseudomonas aeruginosa MB9798 vs MB9799; settings: ratio MITC95 PA_9798/MITC95 PA_9799
In short: as §1

[3] = molecular target: VIM-1 (Pseudomonas aeruginosa (strain ATCC 15692 / DSM 22644 / CIP 104116 / JCM 14847 / LMG 12228 / 1C / PRS 101 / PAO1), UniProt A0A0F7KYQ8); assay: biochemical; settings: CCF2-FA substrate, 30 pM enzyme, 2 hours at 25° C.
In short: (§2)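 Test compound, enzyme and the FRET cephalosporin substrate CCF2-FA are incubated together for 2 hours at 25° C. Cleavage is followed by fluorescence, and IC50 values are derived from semi-logarithmic inhibition curves fitted with a 4-parameter model.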

[4] = tested on: Escherichia coli expressing NDM-1 (CLB30005, CLB30016); type: cell-based; settings: with imipenem 1 μg/ml; for Escherichia coli expressing NDM-1 (CLB30016) MITC95: 95% inhibition of bacterial growth; for Escherichia coli MITC95: NDM-1 strain, 95% inhibition of growth
In short: (§3)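 Clinical strains grown overnight on blood agar at 35°C, colonies suspended in saline, diluted 1:100 into 1.1×CAMHB. Test compound titrated with imipenem at 1 μg/ml; incubated 22–24 h at 35°C, growth read by absorbance.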

[5] = tested on: Serratia marcescens expressing IMP-1 (CL5741); type: cell-based; settings: for Serratia marcescens expressing IMP-1 (CL5741) MITC95: with imipenem 1 μg/ml, 95% inhibition of bacterial growth; for Serratia marcescens MITC95: IMP-1 strain CL5741, with imipenem 1 μg/ml, 95% inhibition of growth
In short: as §3

[6] = tested on: Klebsiella pneumoniae expressing VIM-1 (IHMA599644); type: cell-based; settings: for Klebsiella pneumoniae expressing VIM-1 (IHMA599644) MITC95: with imipenem 1 μg/ml, 95% inhibition of bacterial growth; for Klebsiella pneumoniae MITC95: VIM-1 strain IHMA599644, with imipenem 1 μg/ml, 95% inhibition of growth
In short: as §3

[7] = tested on: Pseudomonas aeruginosa efflux+ (MB9798), IMP-1; type: cell-based; settings: concentration restoring susceptibility to imipenem at 2 μg/mL in the presence of a class A, C, D serine β-lactamase inhibitor closely related to relebactam
In short: as §1

[8] = molecular target: NDM-1 (Klebsiella pneumoniae, UniProt C7C422); assay: biochemical; type: biochemical; settings: fluorescence assay, CCF2-FA substrate, 1 pM enzyme, 2 hours at 25° C.; read-out: NDM-1 IC50
NDM-1, sequence (C7C422 whole entry, looked up, species assumed): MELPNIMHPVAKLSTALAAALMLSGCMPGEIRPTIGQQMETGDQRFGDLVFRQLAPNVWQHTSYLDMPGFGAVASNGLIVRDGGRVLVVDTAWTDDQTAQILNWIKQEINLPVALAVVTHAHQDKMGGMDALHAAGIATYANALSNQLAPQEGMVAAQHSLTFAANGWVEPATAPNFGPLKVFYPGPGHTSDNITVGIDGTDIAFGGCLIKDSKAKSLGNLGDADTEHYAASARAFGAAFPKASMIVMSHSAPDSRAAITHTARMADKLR
In short: as §2

[9] = molecular target: IMP-1 (Serratia marcescens, UniProt P52699); assay: biochemical; type: biochemical; settings: fluorescence assay, CCF2-FA substrate, 2 pM enzyme, 2 hours at 25° C.; read-out: IMP-1 IC50
IMP-1, sequence (P52699 whole entry, looked up, species assumed): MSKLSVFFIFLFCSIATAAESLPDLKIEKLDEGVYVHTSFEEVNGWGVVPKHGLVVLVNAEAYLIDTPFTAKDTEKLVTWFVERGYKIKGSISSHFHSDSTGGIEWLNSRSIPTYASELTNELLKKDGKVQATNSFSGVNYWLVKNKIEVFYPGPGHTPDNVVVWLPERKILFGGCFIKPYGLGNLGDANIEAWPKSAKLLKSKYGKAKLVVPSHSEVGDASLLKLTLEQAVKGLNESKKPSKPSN
In short: as §2

[10] = fluorescence assay, read-out: VIM-1 IC50

SMILES	P. aeruginosa expressing IMP-1, efflux − (MB9799) MITC95 [1] [µM]	Efflux ratio [2]	IC50 [3, 10] [nM]	Escherichia coli expressing NDM-1 (CLB30016) MITC95 [4] [µM]	Serratia marcescens expressing IMP-1 (CL5741) MITC95 [5] [µM]	Klebsiella pneumoniae expressing VIM-1 (IHMA599644) MITC95 [6] [µM]	P. aeruginosa expressing IMP-1, efflux + (MB9798) MITC95 [7] [µM]	IC50 [8] [nM]	IC50 [9] [nM]	IC50 ([3]; VIM-1 IC50, fluorescence assay) [nM]	Escherichia coli MITC95 [4] [µM]	Serratia marcescens MITC95 [5] [µM]	Klebsiella pneumoniae MITC95 [6] [µM]
Nc1ccc(-c2ccc(S(=O)(=O)N[C@@H]3CCNC3)c(S(N)(=O)=O)c2-c2nn[nH]n2)cn1 [Example 194, (R)-4-(6-aminopyridin-3-yl)-N^1-(pyrrolidin-3-yl)-3-(2H-tetrazol-5-yl)benzene-1,2-disulfonamide]	0.8542	0.80	0.123	0.3203	0.5573	2.229	0.6875	0.105	0.242	–	–	–	–
NS(=O)(=O)c1c(S(=O)(=O)N[C@@H]2CCNC2)ccc(-c2ccc3nonc3c2)c1-c1nnn[nH]1 [Example 133, (R)-4-(benzo[c][1,2,5]oxadiazol-5-yl)-N1-(pyrrolidin-3-yl)-3-(1H-tetrazol-5-yl)benzene-1,2-disulfonamide]	0.7813	8.00	0.118	0.7813	1.563	1.563	6.25	0.341	0.816	–	–	–	–
Nc1nc2c(-c3ccc(S(=O)(=O)N4CCC(N)CC4)c(S(N)(=O)=O)c3-c3nn[nH]n3)cccc2s1 [Example 148, 3-(2-aminobenzo[d]thiazol-4-yl)-6-((4-aminopiperidin-1-yl)sulfonyl)-2-(2H-tetrazol-5-yl)benzenesulfonamide]	1.563	2.00	0.749	12.5	3.125	6.25	3.125	0.213	0.49	–	–	–	–
NC[C@@H](N)CNS(=O)(=O)c1ccc(-c2cnc3cc[nH]c3c2)c(-c2nn[nH]n2)c1S(N)(=O)=O [Example 378, (R)-N1-(2,3-diaminopropyl)-4-(1H-pyrrolo[3,2-b]pyridin-6-yl)-3-(2H-tetrazol-5-yl)benzene-1,2-disulfonamide]	1.563	2.00	–	–	–	–	3.125	0.0511	0.354	0.0985	0.7813	1.563	3.125
NC[C@@H](N)CNS(=O)(=O)c1ccc(-c2cccc(-c3n[nH]c(N)n3)c2)c(-c2nn[nH]n2)c1S(N)(=O)=O [Example 230, (R)-3′-(5-amino-1H-1,2,4-triazol-3-yl)-N4-(2,3-diaminopropyl)-2-(2H-tetrazol-5-yl)-[1,1′-biphenyl]-3,4-disulfonamide]	1.563	1.00	0.199	1.563	1.563	3.125	1.563	0.0593	0.357	–	–	–	–
NS(=O)(=O)c1c(S(=O)(=O)N[C@@H]2CCNC2)ccc(-c2cccn3ccnc23)c1-c1nn[nH]n1 [Example 291, (R)-4-(imidazo[1,2-a]pyridin-8-yl)-N1-(pyrrolidin-3-yl)-3-(2H-tetrazol-5-yl)benzene-1,2-disulfonamide]	0.7813	1.00	–	–	–	–	0.7813	0.0505	0.169	0.0694	0.7813	1.563	3.125
Nc1nc2c(-c3ccc(S(=O)(=O)NCC4CCNC4)c(S(N)(=O)=O)c3-c3nnn[nH]3)cccc2s1.O=CO (stereo not drawn) [Example 120, 3-((4-(2-aminobenzo[d]thiazol-4-yl)-2-sulfamoyl-3-(1H-tetrazol-5-yl)phenylsulfonamido)methyl)pyrrolidin-1-ium formate]	1.563	0.50	–	1.563	1.563	3.125	0.7813	0.0495	0.258	0.202	–	–	–
Nc1nc(-c2cccc(-c3ccc(S(=O)(=O)N[C@@H]4CCNC4)c(S(N)(=O)=O)c3-c3nn[nH]n3)c2)n[nH]1 [Example 231, (R)-3′-(5-amino-1H-1,2,4-triazol-3-yl)-N4-(pyrrolidin-3-yl)-2-(2H-tetrazol-5-yl)-[1,1′-biphenyl]-3,4-disulfonamide]	1.563	1.00	0.115	1.563	1.563	3.125	1.563	0.0288	0.376	–	–	–	–
Nc1nc2cccc(-c3ccc(S(=O)(=O)N4CCNCC4)c(S(N)(=O)=O)c3-c3nn[nH]n3)c2[nH]1 [Example 157, 3-(2-amino-3H-benzo[d]imidazol-4-yl)-6-(piperazin-1-ylsulfonyl)-2-(2H-tetrazol-5-yl)benzenesulfonamide]	0.4453	4.00	0.827	0.125	0.8906	1.281	1.781	0.32	3.09	–	–	–	–
NCCN1CC[C@H](NS(=O)(=O)c2ccc(-c3cccc4[nH]c(N)nc34)c(-c3nn[nH]n3)c2S(N)(=O)=O)C1 [Example 268, (S)-4-(2-amino-1H-benzo[d]imidazol-4-yl)-N1-(1-(2-aminoethyl)pyrrolidin-3-yl)-3-(2H-tetrazol-5-yl)benzene-1,2-disulfonamide]	0.7813	1.00	–	–	–	–	0.7813	0.0612	1.1	0.15	0.7813	1.563	1.563
